Assay results from US20230135152A1 (ACURASTEM INCORPORATED, priority 2020, published 2023).

Legend:
PIKFYVE [1] = molecular target: T1, PIKFYVE (Homo sapiens, UniProt Q9Y2I7); test: PIKFYVE assay (luciferase ADP-Glo kinase assay, Promega); type: biochemical; details: Table 3
How it was run: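 Kinase activity measured with a luciferase-based ADP-Glo read-out, which quantifies ADP formed by the enzyme.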

PIKFYVE [2] = molecular target: T1, PIKFYVE; test: Cell-based Pikfyve inhibition activity assay (EEA1 staining, mean vesicle size in BJ fibroblast cells); details: Table 4, 4 hours treatment, 3 μM Apilimod = 100% inhibition
How it was run: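 BJ fibroblasts treated 4 h at 37° C with eleven 3-fold doses (0.03-3000 nM), then fixed and stained for EEA1. Confocal images (20×, 16 tiles/well) analysed for mean vesicle size. Normalised to 0.5% DMSO (0%) and 3 μM apilimod (100%); dose-response fitted with variable slope.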

T1 sequence (Q9Y2I7 whole entry): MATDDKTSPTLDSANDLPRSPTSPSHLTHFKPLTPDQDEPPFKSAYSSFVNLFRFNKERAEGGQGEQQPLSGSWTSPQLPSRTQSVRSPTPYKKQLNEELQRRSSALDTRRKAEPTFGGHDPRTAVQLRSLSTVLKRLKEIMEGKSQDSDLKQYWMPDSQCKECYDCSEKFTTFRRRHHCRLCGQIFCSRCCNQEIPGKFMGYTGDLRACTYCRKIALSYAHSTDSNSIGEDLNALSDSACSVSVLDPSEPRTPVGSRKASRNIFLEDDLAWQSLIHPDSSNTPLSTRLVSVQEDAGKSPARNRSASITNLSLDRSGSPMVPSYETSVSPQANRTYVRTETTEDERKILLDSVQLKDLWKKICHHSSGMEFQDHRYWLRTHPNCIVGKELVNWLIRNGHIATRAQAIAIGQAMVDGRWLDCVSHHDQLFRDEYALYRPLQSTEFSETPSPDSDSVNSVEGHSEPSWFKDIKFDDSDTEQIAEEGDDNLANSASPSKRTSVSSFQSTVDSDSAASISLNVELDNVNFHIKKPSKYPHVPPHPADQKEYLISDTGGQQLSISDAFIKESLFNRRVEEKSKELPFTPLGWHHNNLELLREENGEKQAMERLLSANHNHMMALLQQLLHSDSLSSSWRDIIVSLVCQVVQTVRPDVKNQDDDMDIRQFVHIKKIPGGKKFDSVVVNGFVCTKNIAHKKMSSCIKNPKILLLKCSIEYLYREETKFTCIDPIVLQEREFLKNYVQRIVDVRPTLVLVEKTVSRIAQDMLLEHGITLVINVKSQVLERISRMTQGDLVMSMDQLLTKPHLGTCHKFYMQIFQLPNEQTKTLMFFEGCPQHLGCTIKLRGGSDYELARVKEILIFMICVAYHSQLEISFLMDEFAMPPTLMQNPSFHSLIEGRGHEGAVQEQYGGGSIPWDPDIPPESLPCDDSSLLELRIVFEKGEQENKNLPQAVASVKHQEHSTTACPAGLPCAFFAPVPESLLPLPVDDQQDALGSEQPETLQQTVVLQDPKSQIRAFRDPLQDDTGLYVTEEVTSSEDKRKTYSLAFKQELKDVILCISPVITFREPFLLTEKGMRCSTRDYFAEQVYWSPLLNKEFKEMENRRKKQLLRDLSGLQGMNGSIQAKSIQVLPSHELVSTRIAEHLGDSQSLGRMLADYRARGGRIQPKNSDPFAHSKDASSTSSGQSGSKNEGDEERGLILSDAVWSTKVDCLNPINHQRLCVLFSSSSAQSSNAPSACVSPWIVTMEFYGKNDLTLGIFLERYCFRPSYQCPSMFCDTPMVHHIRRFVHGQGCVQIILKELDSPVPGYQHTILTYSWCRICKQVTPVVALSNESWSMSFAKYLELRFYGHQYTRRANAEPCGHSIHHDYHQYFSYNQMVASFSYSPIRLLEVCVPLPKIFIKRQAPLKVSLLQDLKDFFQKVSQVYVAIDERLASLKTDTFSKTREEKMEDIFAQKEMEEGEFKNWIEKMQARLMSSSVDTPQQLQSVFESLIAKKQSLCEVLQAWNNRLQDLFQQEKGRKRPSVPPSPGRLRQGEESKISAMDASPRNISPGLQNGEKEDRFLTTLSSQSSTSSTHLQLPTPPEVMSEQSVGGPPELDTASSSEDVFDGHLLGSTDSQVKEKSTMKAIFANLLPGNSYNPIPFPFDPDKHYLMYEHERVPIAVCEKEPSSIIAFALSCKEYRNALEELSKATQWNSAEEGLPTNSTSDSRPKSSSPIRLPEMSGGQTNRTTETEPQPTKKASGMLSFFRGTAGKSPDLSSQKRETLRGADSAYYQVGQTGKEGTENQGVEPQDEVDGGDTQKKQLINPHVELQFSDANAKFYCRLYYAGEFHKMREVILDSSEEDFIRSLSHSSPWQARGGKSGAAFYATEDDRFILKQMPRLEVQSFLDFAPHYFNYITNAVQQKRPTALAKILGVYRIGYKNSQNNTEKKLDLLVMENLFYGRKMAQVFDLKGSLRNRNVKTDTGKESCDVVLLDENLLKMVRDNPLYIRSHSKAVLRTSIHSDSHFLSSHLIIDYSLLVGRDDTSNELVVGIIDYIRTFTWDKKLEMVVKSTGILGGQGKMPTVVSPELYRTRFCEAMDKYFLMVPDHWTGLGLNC

IC50 (PIKFYVE [1]) [nM]	EC50 (PIKFYVE [2]) [nM]	Compound
3 to 10	20 to 100	Cc1cccc(-c2ccn(-c3cc(N4CCOCC4)nc(OCc4ncccc4F)n3)n2)c1 [Compound 95, 4-(2-((3-fluoropyridin-2-yl)methoxy)-6-(3-(m-tolyl)-1H-pyrazol-1-yl)pyrimidin-4-yl)morpholine]
3 to 10	< 20	Cc1cccc(-c2ccn(-c3cc(N4CCOCC4)nc(OCCc4sc(C)nc4C)n3)n2)c1 [Compound 98, 4-(2-(2-(2,4-dimethylthiazol-5-yl)ethoxy)-6-(3-(m-tolyl)-1H-pyrazol-1-yl)pyrimidin-4-yl)morpholine]
10 to 100	100 to 500	Cc1cccc(-c2ccn(-c3cc(N4CCOCC4)nc(OCCNc4ccccc4)n3)n2)c1 [Compound 99, N-(2-((4-morpholino-6-(3-(m-tolyl)-1H-pyrazol-1-yl)pyrimidin-2-yl)oxy)ethyl)aniline]
3 to 10	100 to 500	Cc1cccc(-c2ccn(-c3cc(N4CCOCC4)nc(OCCN(C)c4ccccc4)n3)n2)c1 [Compound 100, N-methyl-N-(2-((4-morpholino-6-(3-(m-tolyl)-1H-pyrazol-1-yl)pyrimidin-2-yl)oxy)ethyl)aniline]
3 to 10	100 to 500	Cc1cccc(-c2ccn(-c3cc(N4CCOCC4)nc(OCC4CC4)n3)n2)c1 [Compound 101, 4-(2-(cyclopropyl-methoxy)-6-(3-(m-tolyl)-1H-pyrazol-1-yl)pyrimidin-4-yl)morpholine]
< 3	< 20	C/C=C/COc1nc(N2CCOCC2)cc(-n2ccc(-c3cccc(C)c3)n2)n1 [Compound 102, (E)-4-(2-(but-2-en-1-yloxy)-6-(3-(m-tolyl)-1H-pyrazol-1-yl)pyrimidin-4-yl)morpholine]
3 to 10	100 to 500	CC#CCOc1nc(N2CCOCC2)cc(-n2ccc(-c3cccc(C)c3)n2)n1 [Compound 103, 4-(2-(but-2-yn-1-yloxy)-6-(3-(m-tolyl)-1H-pyrazol-1-yl)pyrimidin-4-yl)morpholine]
< 3	20 to 100	CC#CCCOc1nc(N2CCOCC2)cc(-n2ccc(-c3cccc(C)c3)n2)n1 [Compound 104, 4-(2-(pent-3-yn-1-yloxy)-6-(3-(m-tolyl)-1H-pyrazol-1-yl)pyrimidin-4-yl)morpholine]
< 3	< 20	COc1ccc(CCOc2nc(N3CCOCC3)cc(-n3ccc(-c4cccc(C)c4)n3)n2)cc1OC [Compound 105, 4-(2-(3,4-dimethoxy-phenethoxy)-6-(3-(m-tolyl)-1H-pyrazol-1-yl)pyrimidin-4-yl)morpholine]
10 to 100	500 to 5000	Cc1cccc(-c2ccn(-c3cc(N4CCOCC4)nc(O)n3)n2)c1 [Compound 106, 4-morpholino-6-(3-(m-tolyl)-1H-pyrazol-1-yl)pyrimidin-2-ol]
10 to 100	500 to 5000	Cc1cccc(-c2ccn(-c3cc(N4CCOCC4)nc(N(C)C)n3)n2)c1 [Compound 107, N,N-dimethyl-4-morpholino-6-(3-(m-tolyl)-1H-pyrazol-1-yl)pyrimidin-2-amine]
3 to 10	20 to 100	C#CCCCOc1nc(N2CCOCC2)cc(-n2ccc(-c3cccc(C)c3)n2)n1 [Compound 108, 4-(2-(pent-4-yn-1-yloxy)-6-(3-(m-tolyl)-1H-pyrazol-1-yl)pyrimidin-4-yl)morpholine]
3 to 10	20 to 100	Cc1cccc(-c2ccn(-c3cc(N4CCOCC4)nc(OCC(=O)C4CC4)n3)n2)c1 [Compound 109, 1-cyclopropyl-2-((4-morpholino-6-(3-(m-tolyl)-1H-pyrazol-1-yl)pyrimidin-2-yl)oxy)ethan-1-one]
< 3	100 to 500	Cc1cccc(-c2ccn(-c3cc(N4CCOCC4)nc(OC4COC4)n3)n2)c1 [Compound 110, 4-(2-(oxetan-3-yloxy)-6-(3-(m-tolyl)-1H-pyrazol-1-yl)pyrimidin-4-yl)morpholine]
